According to publication PMC6199744, “Development of Chemical Proteomics for the Folateome and Analysis of the Kinetoplastid Folateome” (ACS Infectious Diseases, 2018):
Like-named read-outs stand apart in the source and are kept apart here.

Columns and labels:
Assay type in all cases: binding
[1] = target: T1, HeLa cell extract proteins (Homo sapiens, UniProt P11021)
T1 construct: endogenous in cells; host or cells: HeLa cell extract

[2] = target: T2, HeLa cell extract proteins (Homo sapiens, UniProt P18669)
T2 construct: endogenous in cells; host or cells: HeLa cell extract

[3] = target: T3, HeLa cell extract proteins (Homo sapiens, UniProt P24666)
T3 construct: endogenous in cells; host or cells: HeLa cell extract
T3 sequence (P24666 1-158): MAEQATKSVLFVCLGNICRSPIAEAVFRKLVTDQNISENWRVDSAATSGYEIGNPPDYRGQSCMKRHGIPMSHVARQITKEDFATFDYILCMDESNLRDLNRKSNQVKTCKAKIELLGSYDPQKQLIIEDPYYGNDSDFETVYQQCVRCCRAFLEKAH

[4] = target: T4, HeLa cell extract proteins (Homo sapiens, UniProt P50990)
T4 construct: endogenous in cells; host or cells: HeLa cell extract
T4 sequence (P50990 1-548): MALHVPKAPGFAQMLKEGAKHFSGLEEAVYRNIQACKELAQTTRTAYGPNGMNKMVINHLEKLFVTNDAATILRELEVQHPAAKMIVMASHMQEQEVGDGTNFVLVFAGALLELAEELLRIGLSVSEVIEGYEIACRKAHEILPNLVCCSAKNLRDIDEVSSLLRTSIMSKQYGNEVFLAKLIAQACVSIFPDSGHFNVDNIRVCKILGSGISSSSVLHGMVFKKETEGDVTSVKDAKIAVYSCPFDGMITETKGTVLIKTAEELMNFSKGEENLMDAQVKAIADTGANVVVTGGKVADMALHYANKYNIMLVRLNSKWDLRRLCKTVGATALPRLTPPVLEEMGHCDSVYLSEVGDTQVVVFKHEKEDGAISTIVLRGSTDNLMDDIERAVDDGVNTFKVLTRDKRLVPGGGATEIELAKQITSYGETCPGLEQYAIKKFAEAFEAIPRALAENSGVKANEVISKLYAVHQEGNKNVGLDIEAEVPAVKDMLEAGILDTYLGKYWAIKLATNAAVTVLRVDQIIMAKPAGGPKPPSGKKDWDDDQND

[5] = target: T5, HeLa cell extract proteins (Homo sapiens, UniProt Q53R41)
T5 construct: endogenous in cells; host or cells: HeLa cell extract
T5 sequence (Q53R41 1-847): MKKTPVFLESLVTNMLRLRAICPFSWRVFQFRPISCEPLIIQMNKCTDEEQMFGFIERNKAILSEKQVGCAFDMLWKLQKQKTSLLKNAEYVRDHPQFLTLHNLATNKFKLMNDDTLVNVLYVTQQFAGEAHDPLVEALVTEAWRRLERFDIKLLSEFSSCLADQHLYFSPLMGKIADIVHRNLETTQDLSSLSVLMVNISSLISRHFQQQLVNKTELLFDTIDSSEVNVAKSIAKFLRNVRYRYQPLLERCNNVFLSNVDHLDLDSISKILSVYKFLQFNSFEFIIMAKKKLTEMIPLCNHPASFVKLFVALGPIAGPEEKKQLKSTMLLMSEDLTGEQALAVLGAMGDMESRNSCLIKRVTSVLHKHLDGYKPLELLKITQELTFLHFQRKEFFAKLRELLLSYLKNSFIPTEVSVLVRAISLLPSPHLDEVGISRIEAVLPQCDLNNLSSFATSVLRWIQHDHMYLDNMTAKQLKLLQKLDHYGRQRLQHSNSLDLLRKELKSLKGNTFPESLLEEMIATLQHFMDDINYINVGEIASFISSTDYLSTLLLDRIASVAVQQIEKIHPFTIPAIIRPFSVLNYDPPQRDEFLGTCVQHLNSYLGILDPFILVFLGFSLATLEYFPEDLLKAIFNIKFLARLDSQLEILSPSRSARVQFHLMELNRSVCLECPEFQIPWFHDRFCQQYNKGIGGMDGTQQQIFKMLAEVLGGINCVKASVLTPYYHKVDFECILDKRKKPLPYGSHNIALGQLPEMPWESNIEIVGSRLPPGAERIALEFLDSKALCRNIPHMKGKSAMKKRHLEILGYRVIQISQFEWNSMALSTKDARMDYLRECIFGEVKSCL

[6] = target: T6, HeLa cell extract proteins (Homo sapiens, UniProt Q969X5)
T6 construct: endogenous in cells; host or cells: HeLa cell extract
T6 sequence (Q969X5 1-290): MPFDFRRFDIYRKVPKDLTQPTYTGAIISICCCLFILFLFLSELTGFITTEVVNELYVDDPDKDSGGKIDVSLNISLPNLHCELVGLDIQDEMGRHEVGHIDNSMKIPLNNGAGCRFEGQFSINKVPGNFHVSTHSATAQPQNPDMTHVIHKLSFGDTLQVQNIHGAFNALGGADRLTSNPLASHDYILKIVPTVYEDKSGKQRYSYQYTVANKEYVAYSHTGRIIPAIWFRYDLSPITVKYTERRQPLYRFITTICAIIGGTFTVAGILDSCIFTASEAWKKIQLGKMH

[7] = target: T7, HeLa cell extract proteins (Homo sapiens, UniProt Q9HBL8)
T7 construct: endogenous in cells; host or cells: HeLa cell extract

[8] = HeLa, protein PGAM1 (SIMILAR TO PHOSPHOGLYCERATE MUTASE 1 ISOFORM 1.)

T7 sequence (Q9HBL8 whole entry): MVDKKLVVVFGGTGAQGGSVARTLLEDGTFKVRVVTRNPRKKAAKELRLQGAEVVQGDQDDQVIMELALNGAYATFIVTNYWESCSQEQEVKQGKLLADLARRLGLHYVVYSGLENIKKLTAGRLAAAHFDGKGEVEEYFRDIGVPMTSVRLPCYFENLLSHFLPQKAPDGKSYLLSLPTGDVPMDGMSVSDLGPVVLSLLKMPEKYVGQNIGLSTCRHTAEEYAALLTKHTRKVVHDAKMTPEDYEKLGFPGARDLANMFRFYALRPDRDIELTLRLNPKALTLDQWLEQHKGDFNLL
T2 sequence (P18669 whole entry): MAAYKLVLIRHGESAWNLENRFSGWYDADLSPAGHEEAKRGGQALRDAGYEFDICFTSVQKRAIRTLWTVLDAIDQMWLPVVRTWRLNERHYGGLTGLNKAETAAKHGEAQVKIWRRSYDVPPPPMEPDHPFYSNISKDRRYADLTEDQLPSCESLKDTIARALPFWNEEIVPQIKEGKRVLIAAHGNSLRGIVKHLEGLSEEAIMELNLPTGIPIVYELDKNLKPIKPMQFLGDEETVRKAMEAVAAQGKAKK
T1 sequence (P11021 19-654): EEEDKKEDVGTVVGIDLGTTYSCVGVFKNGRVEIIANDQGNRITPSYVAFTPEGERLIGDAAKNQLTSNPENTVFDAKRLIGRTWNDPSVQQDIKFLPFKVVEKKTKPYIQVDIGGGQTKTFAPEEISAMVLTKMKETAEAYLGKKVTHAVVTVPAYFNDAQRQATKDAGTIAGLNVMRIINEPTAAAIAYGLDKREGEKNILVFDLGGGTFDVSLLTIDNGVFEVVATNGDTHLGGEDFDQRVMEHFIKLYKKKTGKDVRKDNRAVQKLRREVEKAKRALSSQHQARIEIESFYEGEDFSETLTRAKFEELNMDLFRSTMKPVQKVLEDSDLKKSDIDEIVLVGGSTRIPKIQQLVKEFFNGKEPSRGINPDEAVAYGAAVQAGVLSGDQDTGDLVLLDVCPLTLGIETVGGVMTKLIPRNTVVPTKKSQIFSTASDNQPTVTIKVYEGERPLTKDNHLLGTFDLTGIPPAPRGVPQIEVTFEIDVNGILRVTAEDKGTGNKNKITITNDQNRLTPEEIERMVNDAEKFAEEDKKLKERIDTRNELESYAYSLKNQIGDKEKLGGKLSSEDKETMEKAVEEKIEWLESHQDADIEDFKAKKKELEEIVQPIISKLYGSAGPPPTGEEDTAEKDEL

Structure (SMILES): Nc1nc2cccc(-c3ccccc3)c2n1Cc1ccc(Cl)c(Cl)c1 [compound 3]
- fold changes relative to vehicle control ([1]; protein HSPA5, HeLa): 0.99
- fold changes relative to vehicle control ([2]; HeLa, protein PGAM1 (SIMILAR TO PHOSPH[…] 1 ISOFORM 1.)): 0.9 fold
- fold changes relative to vehicle control ([3]; HeLa, protein ACP1): 0.71
- fold changes relative to vehicle control ([4]; protein CCT8, HeLa): 0.96
- fold changes relative to vehicle control ([5]; captured protein FASTKD1, HeLa): 0.98
- fold changes relative to vehicle control ([6]; captured protein ERGIC1, HeLa): 1.1
- fold changes relative to vehicle control ([7]; captured protein NMRAL1, HeLa): 0.95

Structure (SMILES): NCCOCCOCC(=O)Nc1nc2ncc(CNc3ccc(C(=O)NC(CCC(=O)O)C(=O)O)cc3)nc2c(=O)[nH]1 (stereo not shown) [compound 6]
- fold changes relative to vehicle control ([1]; HeLa, captured protein HSPA5): 1
- fold changes relative to vehicle control ([2]; HeLa, protein PGAM1): 1.41
- fold changes relative to vehicle control ([3]; protein ACP1, HeLa): 1.04
- fold changes relative to vehicle control ([4]; HeLa, protein CCT8): 1.15
- fold changes relative to vehicle control ([5]; HeLa, protein FASTKD1): 0.87
- fold changes relative to vehicle control ([6]; protein ERGIC1, HeLa): 0.86
- fold changes relative to vehicle control ([7]; protein NMRAL1, HeLa): 0.62

Structure (SMILES): Nc1nc2[nH]cc(CCc3ccc(C(=O)N[C@@H](CCC(=O)O)C(=O)O)cc3)c2c(=O)[nH]1 [PTX, pemetrexed]
- fold changes relative to vehicle control [1]: 1.03
- fold changes relative to vehicle control [2]: 1.24
- fold changes relative to vehicle control [3]: 0.84
- fold changes relative to vehicle control [4]: 1.02
- fold changes relative to vehicle control [5]: 0.83
- fold changes relative to vehicle control [6]: 0.85
- fold changes relative to vehicle control [7]: 0.89

Structure (SMILES): Nc1nc2c(c(=O)[nH]1)N(C=O)C(CNc1ccc(C(=O)N[C@@H](CCC(=O)O)C(=O)O)cc1)CN2 (stereo partly shown) [LEU, leucovorin]
- fold changes relative to vehicle control ([1]; HeLa, captured protein HSPA5): 1.06
- fold changes relative to vehicle control ([2]; HeLa, protein PGAM1): 1.05
- fold changes relative to vehicle control ([3]; protein ACP1, HeLa): 0.72
- fold changes relative to vehicle control ([4]; HeLa, protein CCT8): 0.99
- fold changes relative to vehicle control ([5]; HeLa, protein FASTKD1): 0.85
- fold changes relative to vehicle control ([6]; protein ERGIC1, HeLa): 0.77
- fold changes relative to vehicle control ([7]; protein NMRAL1, HeLa): 1.01

Structure (SMILES): CCCCCCOc1ccc(Cc2cnc(N)nc2N)cc1 [compound 1]
- fold changes relative to vehicle control ([1]; protein HSPA5, HeLa): 0.96
- fold changes relative to vehicle control [2, 8]: 1.5 fold
- fold changes relative to vehicle control ([3]; HeLa, protein ACP1): 0.77
- fold changes relative to vehicle control ([4]; protein CCT8, HeLa): 1.16
- fold changes relative to vehicle control ([5]; captured protein FASTKD1, HeLa): 0.96
- fold changes relative to vehicle control ([6]; captured protein ERGIC1, HeLa): 0.94
- fold changes relative to vehicle control ([7]; captured protein NMRAL1, HeLa): 0.54

Structure (SMILES): NCCCNc1ccc(C(=O)NC(CCC(=O)O)C(=O)O)cc1 (stereo not shown) [compound 7]
- fold changes relative to vehicle control ([1]; HeLa, captured protein HSPA5): 1
- fold changes relative to vehicle control ([2]; HeLa, protein PGAM1): 0.99
- fold changes relative to vehicle control ([3]; protein ACP1, HeLa): 0.71
- fold changes relative to vehicle control ([4]; HeLa, protein CCT8): 0.92
- fold changes relative to vehicle control ([5]; HeLa, protein FASTKD1): 0.84
- fold changes relative to vehicle control ([6]; protein ERGIC1, HeLa): 1.31
- fold changes relative to vehicle control ([7]; protein NMRAL1, HeLa): 1.03

Structure (SMILES): CCCCCCOc1cccc(Cc2cnc(N)nc2N)c1 [compound 2]
- fold changes relative to vehicle control ([1]; protein HSPA5, HeLa): 1.12
- fold changes relative to vehicle control [2, 8]: 2.64 fold
- fold changes relative to vehicle control ([3]; HeLa, protein ACP1): 0.98
- fold changes relative to vehicle control ([4]; protein CCT8, HeLa): 1.92
- fold changes relative to vehicle control ([5]; captured protein FASTKD1, HeLa): 1.08
- fold changes relative to vehicle control ([6]; captured protein ERGIC1, HeLa): 1.02
- fold changes relative to vehicle control ([7]; captured protein NMRAL1, HeLa): 1.05
